According to patent US20250154144A1 (CHILDREN'S HOSPITAL MEDICAL CENTER, priority 2021, published 2025):
Where two headings read alike, the source gives them in different places.

Tests used:
MOLM14(D835Y) cells = type: cell-based; conditions: MOLM14(D835Y), 10 × 10
THP1 cells = experiment: Combination drug screening, Cell Titer Glo, 10 × 10 matrix, THP1 cells; type: cell-based
[1] = title compound starting conc. 20000 nM + (+)-BAY-1251152 starting conc. 1000 nM
[2] = title compound starting conc. 20000 nM + Azacitidine (5-Azacytidine) starting conc. 20000 nM
[3] = title compound starting conc. 20000 nM + Palbociclib starting conc. 10000 nM
[4] = title compound starting conc. 20000 nM + Prednisolone starting conc. 10000 nM
[5] = title compound starting conc. 20000 nM + TNO-155 starting conc. 10000 nM
[6] = title compound starting conc. 20000 nM + Venetoclax (ABT-199) starting conc. 2000 nM
[7] = title compound starting conc. 20000 nM + Venetoclax (ABT-199) starting conc. 20000 nM
[8] = starting conc. 20000 nM, with (+)-BAY-1251152 starting conc. 1000 nM
[9] = starting conc. 20000 nM, with Azacitidine (5-Azacytidine) starting conc. 20000 nM
[10] = starting conc. 20000 nM, with Palbociclib starting conc. 10000 nM
[11] = starting conc. 20000 nM, with Prednisolone starting conc. 10000 nM
[12] = starting conc. 20000 nM, with TNO-155 starting conc. 10000 nM
[13] = starting conc. 20000 nM, with Venetoclax (ABT-199) starting conc. 2000 nM
[14] = starting conc. 20000 nM, with Venetoclax (ABT-199) starting conc. 20000 nM
[15] = starting conc. 2000 nM, with (+)-BAY-1251152 starting conc. 1000 nM
[16] = starting conc. 2000 nM, with Azacitidine (5-Azacytidine) starting conc. 20000 nM
[17] = starting conc. 2000 nM, with Palbociclib starting conc. 10000 nM
[18] = starting conc. 2000 nM, with Prednisolone starting conc. 10000 nM
[19] = starting conc. 2000 nM, with TNO-155 starting conc. 10000 nM
[20] = starting conc. 2000 nM, with Venetoclax (ABT-199) starting conc. 2000 nM
[21] = starting conc. 2000 nM, with Venetoclax (ABT-199) starting conc. 20000 nM

Structure (SMILES): CCc1nc(C(N)=O)c(Nc2ccc(N3CCC(N4CCN(C)CC4)CC3)c(OC)c2)nc1NC1CCOCC1 [Gilteritinib hemifumarate, Gilteritinib, reference compound]
- Excess HSA Score (MOLM14(D835Y) cells; title compound starting conc. 500 nM + (+)-BAY-1251152 starting conc. 1000 nM): 161.1
- Excess HSA Score (MOLM14(D835Y) cells; title compound starting conc. 500 nM + Azacitidine (5-Azacytidine) starting conc. 20000 nM): −848
- Excess HSA Score (MOLM14(D835Y) cells; title compound starting conc. 500 nM + Palbociclib starting conc. 10000 nM): −910.3
- Excess HSA Score (MOLM14(D835Y) cells; title compound starting conc. 500 nM + Prednisolone starting conc. 10000 nM): −285.8
- Excess HSA Score (MOLM14(D835Y) cells; title compound starting conc. 500 nM + TNO-155 starting conc. 10000 nM): −773.9
- Excess HSA Score (MOLM14(D835Y) cells; title compound starting conc. 500 nM + Venetoclax (ABT-199) starting conc. 2000 nM): −704
- Excess HSA Score (MOLM14(D835Y) cells; title compound starting conc. 500 nM + Venetoclax (ABT-199) starting conc. 20000 nM): −237.3
- Excess HSA Score (MOLM14(D835Y) cells; [1]): 43.97
- Excess HSA Score (MOLM14(D835Y) cells; [2]): −117
- Excess HSA Score (MOLM14(D835Y) cells; [3]): −262.1121
- Excess HSA Score (MOLM14(D835Y) cells; [4]): −290.6
- Excess HSA Score (MOLM14(D835Y) cells; [5]): −494.5
- Excess HSA Score (MOLM14(D835Y) cells; [6]): −876.4
- Excess HSA Score (MOLM14(D835Y) cells; [7]): −271.3
- Excess HSA Score (THP1 cells; starting conc. 500 nM, with (+)-BAY-1251152 starting conc. 1000 nM): −10.1945
- Excess HSA Score (THP1 cells; starting conc. 500 nM, with Azacitidine (5-Azacytidine) starting conc. 20000 nM): −354.4
- Excess HSA Score (THP1 cells; starting conc. 500 nM, with Palbociclib starting conc. 10000 nM): −228
- Excess HSA Score (THP1 cells; starting conc. 500 nM, with Prednisolone starting conc. 10000 nM): 119.9
- Excess HSA Score (THP1 cells; starting conc. 500 nM, with TNO-155 starting conc. 10000 nM): 15.34
- Excess HSA Score (THP1 cells; starting conc. 500 nM, with Venetoclax (ABT-199) starting conc. 2000 nM): −95.51
- Excess HSA Score (THP1 cells; starting conc. 500 nM, with Venetoclax (ABT-199) starting conc. 20000 nM): −866.3
- Excess HSA Score (THP1 cells; [8]): −484.1
- Excess HSA Score (THP1 cells; [9]): −391.5
- Excess HSA Score (THP1 cells; [10]): −415
- Excess HSA Score (THP1 cells; [11]): −149.2201
- Excess HSA Score (THP1 cells; [12]): −398.3
- Excess HSA Score (THP1 cells; [13]): −448
- Excess HSA Score (THP1 cells; [14]): −1390

Structure (SMILES): Cc1cc(-c2nc(C(=O)Nc3cc4oc(N5CCOCC5)nc4nc3N3CC[C@@H](O)C3)co2)ccn1 [CA-4948, reference compound]
- Excess HSA Score (MOLM14(D835Y) cells; title compound starting conc. 2000 nM + (+)-BAY-1251152 starting conc. 1000 nM): −153.6
- Excess HSA Score (MOLM14(D835Y) cells; title compound starting conc. 2000 nM + Azacitidine (5-Azacytidine) starting conc. 20000 nM): −672.6
- Excess HSA Score (MOLM14(D835Y) cells; title compound starting conc. 2000 nM + Palbociclib starting conc. 10000 nM): −930
- Excess HSA Score (MOLM14(D835Y) cells; title compound starting conc. 2000 nM + Prednisolone starting conc. 10000 nM): −435.8
- Excess HSA Score (MOLM14(D835Y) cells; title compound starting conc. 2000 nM + TNO-155 starting conc. 10000 nM): −1272
- Excess HSA Score (MOLM14(D835Y) cells; title compound starting conc. 2000 nM + Venetoclax (ABT-199) starting conc. 2000 nM): −280.9
- Excess HSA Score (MOLM14(D835Y) cells; title compound starting conc. 2000 nM + Venetoclax (ABT-199) starting conc. 20000 nM): −1172
- Excess HSA Score (MOLM14(D835Y) cells; [1]): −195.3
- Excess HSA Score (MOLM14(D835Y) cells; [2]): −612.1
- Excess HSA Score (MOLM14(D835Y) cells; [3]): −90.76
- Excess HSA Score (MOLM14(D835Y) cells; [4]): −397.1
- Excess HSA Score (MOLM14(D835Y) cells; [5]): −1174
- Excess HSA Score (MOLM14(D835Y) cells; [6]): −1088
- Excess HSA Score (MOLM14(D835Y) cells; [7]): −1078.145
- Comments (THP1 cells; [15]): Antagonistic at both
- Excess HSA Score (THP1 cells; [15]): 43.42
- Comments (THP1 cells; [16]): Synergistic
- Excess HSA Score (THP1 cells; [16]): −147.4
- Comments (THP1 cells; [17]): Synergistic
- Excess HSA Score (THP1 cells; [17]): −41.44
- Comments (THP1 cells; [18]): Antagonistic
- Excess HSA Score (THP1 cells; [18]): 28.64
- Comments (THP1 cells; [19]): Antagonistic
- Excess HSA Score (THP1 cells; [19]): 22.1261
- Comments (THP1 cells; [20]): Antagonistic
- Excess HSA Score (THP1 cells; [20]): 806.5237
- Comments (THP1 cells; [21]): Synergistic; Optimal
- Excess HSA Score (THP1 cells; [21]): −48.9669
- Comments (THP1 cells; [8]): Antagonistic at both
- Excess HSA Score (THP1 cells; [8]): 230.5
- Comments (THP1 cells; [9]): Synergistic
- Excess HSA Score (THP1 cells; [9]): −562.3
- Comments (THP1 cells; [10]): Antagonistic
- Excess HSA Score (THP1 cells; [10]): 579.4
- Comments (THP1 cells; [11]): Synergistic
- Excess HSA Score (THP1 cells; [11]): −33.05
- Comments (THP1 cells; [12]): Additive
- Excess HSA Score (THP1 cells; [12]): −0.9078
- Comments (THP1 cells; [13]): Synergistic; Optimal
- Excess HSA Score (THP1 cells; [13]): −352.8
- Comments (THP1 cells; [14]): Synergistic; Optimal
- Excess HSA Score (THP1 cells; [14]): −979.3
